According to US20190159450A1, “PYRIDINE-BASED COMPOUND INCLUDING ISOXAZOLINE RING AND USE THEREOF AS HERBICIDE” (MOGHU RESEARCH CENTER LTD., priority 2016, published 2019):

Assays:
Type in all cases: in vivo
[1] = system: Aeschynomene indica; assay: Herbicidal activity test, pre-weeds emergence treatment; details: assessed 2 to 3 weeks after spraying, scale 0-10 (0: no effect, 10: complete death)
Experimental: (§1) A rectangular plastic pot with a surface area of 300 cm^2 was filled with sandy loam soil and mixed soil at a ratio of 1:1, and four kinds of weeds including Quamoclit pennata, Abutilon theophrasti Medicus, and Aeschynomene indica, Xanthium strumarium were sown therein. In another pot made in the same way, three kinds of crop seeds including maize, wheat, and rice were sown. The pots were watered and one day later, a medicament was sprayed thereon. The spraying was performed by using a track sprayer (R&D Sprayer, USA) equipped with Teejet 8002EVS (Spraying Systems Co., USA) nozzle, and the spray amount was controlled to be 1000 L/ha. A spray solution was prepared by dissolving the compound of each example or a control material in acetone, and then, adding the same amount of 0.1% (v/v) tween 20 aqueous solution thereto. The spray amount was 200 g/ha. The pots were placed in a greenhouse in which the temperature was maintained at 25° C. to 30° C. during the day and 15° C. to 25° C. during the night, and was regularly watered. After 2 to 3 weeks from the spraying of the compounds or the control material, the efficacy and the damages on each weed and each crop were assessed according to the scale of 0-10 (0: no effect, 10: complete death) scale and the results are shown in Table 3 below.
(§2) Pots for crops and weeds were prepared in the same manner as the test method illustrated in Table 3, and three kinds of weeds selected from Quamoclit pennata, Abutilon theophrasti Medicus, and Aeschynomene indica, Xanthium strumarium were used.

[2] = system: Abutilon theophrasti Medicus; assay: as above; details: assessed 2 to 3 weeks after spraying, scale 0-10 (0: no effect, 10: complete death)
Experimental: as §1, §2

[3] = system: Quamoclit pennata; assay: as above; details: assessed 2 to 3 weeks after spraying, scale 0-10 (0: no effect, 10: complete death)
Experimental: as §1, §2

[4] = system: Xanthium strumarium; assay: as above; details: assessed 2 to 3 weeks after spraying, scale 0-10 (0: no effect, 10: complete death)
Experimental: as §1, §2

[5] = system: wheat; assay: Herbicidal activity test, post-weeds emergence treatment (crop damage); details: assessed after 2 to 3 weeks, 0: no effect, 10: complete death
Experimental: as §1
(§3) Pots for crops and weeds were prepared in the same manner as in Experimental Example 1, and then, when the crops and the weeds were raised up to 2 weeks roughly on a third-leaf stage, the compounds and the control material were sprayed thereon in the same manner as described above. The spray amount was 200 g/ha. After 2 to 3 weeks from the spraying of the test substance or the control substance, the efficacy and the damages on each weed and each crop were assessed according to the scale of 0-10 (0: no effect, 10: complete death) scale.
as §2, with “5,” for “3,”, “four” for “three”, “used. The spray amount was 200 g/ha for crops and 50 g/ha for weeds.” for “used.”

[6] = system: maize; assay: as above; details: assessed after 2 to 3 weeks, 0: no effect, 10: complete death
Experimental: as §1, §3
as §2, with “5,” for “3,”, “four” for “three”, “used. The spray amount was 200 g/ha for crops and 50 g/ha for weeds.” for “used.”

[7] = system: rice; assay: as above; details: assessed after 2 to 3 weeks, 0: no effect, 10: complete death
Experimental: as §1, §3
as §2, with “5,” for “3,”, “four” for “three”, “used. The spray amount was 200 g/ha for crops and 50 g/ha for weeds.” for “used.”

[8] = system: wheat; assay: Herbicidal activity test, pre-weeds emergence treatment (crop damage); details: assessed 2 to 3 weeks after spraying, scale 0-10 (0: no effect, 10: complete death)
Experimental: as §1, §2

[9] = system: maize; assay: as above; details: assessed 2 to 3 weeks after spraying, scale 0-10 (0: no effect, 10: complete death)
Experimental: as §1, §2

[10] = system: rice; assay: as above; details: assessed 2 to 3 weeks after spraying, scale 0-10 (0: no effect, 10: complete death)
Experimental: as §1, §2

[11] = system: Aeschynomene indica; assay: Herbicidal activity test, post-weeds emergence treatment; details: assessed after 2 to 3 weeks, 0: no effect, 10: complete death
Experimental: as §1, §3
as §2, with “5,” for “3,”, “four” for “three”, “used. The spray amount was 200 g/ha for crops and 50 g/ha for weeds.” for “used.”

[12] = system: Abutilon theophrasti Medicus; assay: as above; details: assessed after 2 to 3 weeks, 0: no effect, 10: complete death
Experimental: as §1, §3
as §2, with “5,” for “3,”, “four” for “three”, “used. The spray amount was 200 g/ha for crops and 50 g/ha for weeds.” for “used.”

[13] = system: Quamoclit pennata; assay: as above; details: assessed after 2 to 3 weeks, 0: no effect, 10: complete death
Experimental: as §1, §3
as §2, with “5,” for “3,”, “four” for “three”, “used. The spray amount was 200 g/ha for crops and 50 g/ha for weeds.” for “used.”

[14] = system: Xanthium strumarium; assay: as above; details: assessed after 2 to 3 weeks, 0: no effect, 10: complete death
Experimental: as §1, §3
as §2, with “5,” for “3,”, “four” for “three”, “used. The spray amount was 200 g/ha for crops and 50 g/ha for weeds.” for “used.”

[15] = spray amount 200 g/ha for crops, Table 6
[16] = spray amount 50 g/ha for weeds, Table 6

Row | Compound | PRE AESIN (Aeschynomene indica), efficacy score ([1]; Table 4, 200 g/ha) | PRE ABUTH (Abutilon theophrasti Medicus), efficacy score ([2]; Table 4, 200 g/ha) | PRE IPOAN (Quamoclit pennata), efficacy score ([3]; Table 4, 200 g/ha) | PRE XANST (Xanthium strumarium), efficacy score ([4]; Table 4, 200 g/ha) | TRZAW (wheat) damage, scale of 0-10 [5, 15] | ZEAMX (maize) damage, scale of 0-10 [6, 15] | ORYSA (rice) damage, scale of 0-10 [7, 15] | PRE TRZAW (wheat), damage score ([8]; Table 4, 200 g/ha) | PRE ZEAMX (maize), damage score ([9]; Table 4, 200 g/ha) | PRE ORYSA (rice), damage score ([10]; Table 4, 200 g/ha) | AESIN (Aeschynomene indica) herbicidal efficacy, scale of 0-10 [11, 16] | ABUTH (Abutilon theophrasti Medicus) herbicidal efficacy, scale of 0-10 [12, 16] | IPOAN (Quamoclit pennata) herbicidal efficacy, scale of 0-10 [13, 16] | XANST (Xanthium strumarium) herbicidal efficacy, scale of 0-10 [14, 16] | further results
1 | Nc1cc(C2CC(Cl)=NO2)nc(C(=O)Oc2ccccc2)c1Cl (centres unmarked) [Compound 94, phenyl 4-amino-3-chloro-6-(3-chloro-4,5-dihydroisoxazol-5-yl)picolinate] | 10 | 10 | 10 | 10 | 0 | 0 | 3 | 0 | 2 | 7 | 10 | 10 | 8 | 10 | –
2 | Nc1cc(C2CC(Cl)=NO2)nc(C(=O)OCc2ccccc2)c1Cl (centres unmarked) [Compound 95, benzyl 4-amino-3-chloro-6-(3-chloro-4,5-dihydroisoxazol-5-yl)picolinate] | 10 | 10 | 0 | 10 | 1 | 1 | 1 | 0 | 0 | 6 | 10 | 10 | 8 | 10 | –
3 | Nc1c(Cl)c(F)nc(OCC(=O)O)c1Cl [fluroxypyr, reference compound] | 10 | 7 | 9 | 9 | 0 | 3 | 3 | 3 | 4 | 8 | 3 | 7 | 6 | 10 | PRE AESIN (Aeschynomene indica), efficacy score ([1]; Table 3, 200 g/ha): 9; PRE ABUTH (Abutilon theophrasti Medicus), efficacy score ([2]; Table 3, 200 g/ha): 7; PRE IPOAN (Quamoclit pennata), efficacy score ([3]; Table 3, 200 g/ha): 9; PRE XANST (Xanthium strumarium), efficacy score ([4]; Table 3, 200 g/ha): 9; TRZAW (wheat) damage, scale of 0-10 ([5]; spray amount 200 g/ha, Table 5): 3; ZEAMX (maize) damage, scale of 0-10 ([6]; spray amount 200 g/ha, Table 5): 0; ORYSA (rice) damage, scale of 0-10 ([7]; spray amount 200 g/ha, Table 5): 4; PRE TRZAW (wheat), damage score ([8]; Table 3, 200 g/ha): 3; PRE ZEAMX (maize), damage score ([9]; Table 3, 200 g/ha): 3; PRE ORYSA (rice), damage score ([10]; Table 3, 200 g/ha): 8; AESIN (Aeschynomene indica) herbicidal efficacy, scale of 0-10 ([11]; spray amount 200 g/ha, Table 5): 10; ABUTH (Abutilon theophrasti Medicus) herbicidal efficacy, scale of 0-10 ([12]; spray amount 200 g/ha, Table 5): 10; IPOAN (Quamoclit pennata) herbicidal efficacy, scale of 0-10 ([13]; spray amount 200 g/ha, Table 5): 8; XANST (Xanthium strumarium) herbicidal efficacy, scale of 0-10 ([14]; spray amount 200 g/ha, Table 5): 10
